The results in this text go back to patent publication US4727086A, “Certain anti-hypertensive 2,3-dihydrobenzofuran compounds” (Adir et Compagnie, priority 1985, dated 1988).

The subject of experiment [1] is coronary artery of the dog. Description: Contraction-inhibiting activity on the coronary artery of the dog (in vitro). The experiment is classed as cell-based. The note with it: Canis lupus familiaris, 0.25 h, contraction induced by 100 mM potassium ions, reactivation with 10 and 20 mM calcium ions, 15-minute action, read-out: ED50 (dose capable of inhibiting 50% of the maximum contraction). As for the experimental part: Assessment of the Contraction-Inhibiting Activity on the Coronary Artery of the Dog
The inhibiting activity on contraction induced by calcium ions was assessed in vitro on the coronary artery of the dog according to the method described by Godfraind and Miller in Circ. Res. (1983) 52, No. 2, pp. 81-91. Contraction was induced by a solution containing 100 millimoles of potassium ions per liter. The compounds to be examined were then introduced in cumulative doses and after a 15-minute period of action the preparation was reactivated with solutions having a calcium ion concentration of 10 and 20 mM. The dose capable of inhibiting 50% (ED50) of the maximum contraction was assessed.

Another experiment deals with mongrel dogs. As to the kind of experiment: Haemodynamic effects in vivo in anaesthetised dogs. The protocol: Haemodynamic Effects In Vivo
The haemodynamic effects were assessed in mongrel dogs weighing from 25 to 30 kg which had been anaesthetised with sodium phenobarbital, had undergone a thoractomy at the 5th left intercostal space and carried electromagnetic rings at the level of the circumflex branch of the left coronary artery and at the level of the ascending aorta. The maximum bradycardic effect (E.B. max.), the mean coronary resistances (C.V.R.M.), the coronary output (C.B.F.M.), and the arterial pressure (P.A.) were measured after the intravenous injection of a dose of 300 μg/kg and 1000 μg/kg of the compounds of Examples 1 and 13.
Table 5 summarises the various results which are expressed as percentage increases (+%) or percentage decreases (-%) in the values in relation to those observed before treatment.

With `COc1ccc2c(c1)C(CCCN(C)CCc1ccc(OC)c(OC)c1)(c1ccccc1)C(O)O2` (centres unmarked) [Example 11, 2-Hydroxy-5-methoxy-3-phenyl-3-[3-(N-(3,4-dimethoxyphenethyl)-N-methylamino)-propyl]-2,3-dihydrobenzofuran phosphate], the IC50 in experiment [1] came out at 6.2 µM.

For `COc1cccc(N2CCN(CCCC3(c4ccccc4)COc4ccccc43)CC2)c1` (centres unmarked) [Example 16, 3-phenyl-3-[3-(4-(3-methoxyphenyl)-1-piperazinyl)-propyl]-2,3-dihydrobenzofuran], the IC50 in experiment [1] turned out to be 9 µM.

For `COc1ccc2c(c1)C(CCCN(C)CCc1ccc(OC)c(OC)c1)(c1ccc(C)cc1)CO2` (centres unmarked) [Example 5, 5-methoxy-3-(4-methylphenyl)-3-[3-(N-(3,4-dimethoxyphenethyl)-N-methylamino)-propyl]-2,3-dihydrobenzofuran], the IC50 in experiment [1] is 26 µM.

Regarding `c1ccc(C2(CCCN3CCc4ccsc4C3)COc3ccccc32)cc1` (centres unmarked) [Example 14, 3-phenyl-3-[3-(1,2,6,7-tetrahydro-(2,3-c)-thieno-1-pyridinyl)-propyl]-2,3-dihydrobenzofuran], in experiment [1], the IC50 is 9 µM.

In the case of `COc1ccc(CCN(C)CCCC2(c3ccccc3)COc3cc(OC)c(OC)cc32)cc1OC` (centres unmarked) [Example 3, 5,6-dimethoxy-3-phenyl-3-[3-(N-(3,4-dimethoxyphenethyl)-N-methylamino)-propyl]-2,3-dihydrobenzofuran], the IC50 in experiment [1] stood at 90 µM.

`COc1ccc2c(c1)C(CCCN1CCc3cc(OC)c(OC)cc3C1)(c1ccccc1)CO2` (centres unmarked) [Example 7, 5-methoxy-3-phenyl-3-[3-(6,7-dimethoxy-1,2,3,4-tetrahydro-2-isoquinolyl)-propyl]-2,3-dihydrobenzofuran]: the IC50 in experiment [1] came out at 6.3 µM.

`COc1ccc2c(c1)C(CCCN(C)C1Cc3cc(OC)c(OC)cc3C1)(c1ccccc1)CO2` (centres unmarked) [Example 6, 5-methoxy-3-phenyl-3-[3-(N-(5,6-dimethoxy-2-indanyl)-N-methylamino)-propyl]-2,3-dihydrobenzofuran]: in experiment [1], the IC50 is 10 µM.

Take `CCN(CC)CCCC1(c2ccccc2)COc2ccc(OC)cc21` (centres unmarked) [Example 10, 5-methoxy-3-phenyl-3-[3-(N-diethylamino)-propyl]-2,3-dihydrobenzofuran]: the IC50 in experiment [1] amounted to 6.1 µM.

Regarding `COc1ccc(CCN(C)CCCC2(c3ccccc3)c3cc(OC)c(OC)cc3OC2O)cc1OC` (centres unmarked) [Example 12, 2-hydroxy-5,6-dimethoxy-3-phenyl-3-[3-(N-(3,4-dimethoxyphenethyl)-N-methylamino)-propyl]-2,3-dihydrobenzofuran phosphate], the IC50 in experiment [1] came out at 8 µM.

On to `COc1ccc2c(c1)C(CCCN1CCN(C)CC1)(c1ccccc1)CO2` (centres unmarked) [Example 9, 5-methoxy-3-phenyl-3-[3-(4-methyl-1-piperazinyl)-propyl]-2,3-dihydrobenzofuran], for which, in experiment [1], the IC50 was found to be 35 µM.

With `COc1ccc(CCN(C)CCCC2(c3ccccc3)COc3ccccc32)cc1OC.O=P(O)(O)O` (centres unmarked) [Example 13, 3-phenyl-3-[3-(N-(3,4-dimethoxyphenethyl)-N-methylamino)-propyl]-2,3-dihydrobenzofuran phosphate], in experiment [1], the IC50 worked out at 4 µM. In the experiment on mongrel dogs (300 μg/kg intravenous), the “CBFM (coronary output), % change vs before treatment” value (shortened to “CBFM (coronary output), % change”) is “+31%”; the “CRVM (mean coronary resistances), % change vs before treatment” value (“CRVM … % change vs before treatment” for short) was -36%; the “EB max (maximum bradycardic effect), % change vs before treatment” value (from here on “EB max … % change vs before treatment”) is listed as -8%; the “PA (arterial pressure), % change vs before treatment” value (“PA (arterial pressure), % change” for short) was -16%. In the experiment with mongrel dogs (1000 μg/kg intravenous), the “CBFM (coronary output), % change” value was “+59%”; the “CRVM … % change vs before treatment” value is -60%; the “EB max … % change vs before treatment” value is on record as -10%; the “PA (arterial pressure), % change” value is reported as -31%.

With `COc1ccc2c(c1)C(CCCN(C)CCc1ccc(OC)c(OC)c1)(c1ccccc1)CO2.O=P(O)(O)O` (centres unmarked) [Example 1, 5-methoxy-3-phenyl-3-[3-(N-(3,4-dimethoxyphenethyl)-N-methylamino)-propyl]-2,3-dihydrobenzofuran phosphate], the IC50 in experiment [1] came out at 1.7 µM. Further, in the experiment with mongrel dogs (300 μg/kg intravenous), the “CBFM (coronary output), % change” value is recorded as “+51%”; the “CRVM … % change vs before treatment” value is reported as -39%; the “EB max … % change vs before treatment” value was -7%; the “PA (arterial pressure), % change” value is -9%. In addition, in the experiment with mongrel dogs (1000 μg/kg intravenous), the “CBFM (coronary output), % change” value is on record as “+85%”; the “CRVM … % change vs before treatment” value is given as -57%; the “EB max … % change vs before treatment” value is listed as -13%; the “PA (arterial pressure), % change” value was -21%.

For `COc1ccc2c(c1)C(CCCN(C)CCc1ccccc1)(c1ccccc1)CO2` (centres unmarked) [Example 8, 5-methoxy-3-phenyl-3-[3-(N-phenethyl-N-methylamino)-propyl]-2,3-dihydrobenzofuran], in experiment [1], the IC50 worked out at 8.4 µM.

For the compound `COc1cccc(N2CCN(CCCC3(c4ccccc4)COc4ccc(Cl)cc43)CC2)c1` (centres unmarked) [Example 2, 5-chloro-3-phenyl-3-[3-(4-(3-methoxyphenyl)-1-piperazinyl)-propyl]-2,3-dihydrobenzofuran], in experiment [1], the IC50 came to 10 µM.

On to `c1ccc(C2(CCCN3CCOCC3)COc3ccccc32)cc1` (centres unmarked) [Example 15, 3-phenyl-3-[3-(4-morpholinyl)-propyl]-2,3-dihydrobenzofuran], for which the IC50 in experiment [1] worked out at 50 µM.

For `COc1ccc(CCN(C)CCCC2(c3ccccc3)COc3ccc(Cl)cc32)cc1OC` (centres unmarked) [Example 4, 5-chloro-3-phenyl-3-[3-(N-(3,4-dimethoxyphenethyl)-N-methylamino)-propyl]-2,3-dihydrobenzofuran], the IC50 in experiment [1] worked out at 30 µM.
